Results reported in patent US20260232653A1, “USE OF CONDENSED AZACYCLE COMPOUNDS FOR THE TREATMENT OF LYSOSOMAL STORAGE DISORDERS” (Minerva Neurosciences, Inc., priority 2023, published 2026).

How the values were obtained:
[1] = molecular target: sigma 2/transmembrane protein 97 ("TMEM97") receptors (Homo sapiens, UniProt Q5BJF2); details: antagonist of the sigma receptor; known in the art; cited from earlier work
NPC1 protein = assay: Effect on NPC1 protein levels, Western blot densitometry in I1061T fibroblasts; format: cell-based; details: 0.3, 1 and 3 μM, 24 h, 48 h, 72 h, versus vehicle (FIGS. 1B-1D)
Experimental: (§1) Healthy and I1061T fibroblasts (Coriell Institute Camden USA, cod. GM05659 (Healthy) and GM18453 (11061T)) were grown in air containing 5% CO2 in Dulbecco's Modified Eagle Medium (DMEM) medium, containing 10% v/v fetal calf serum, 2 mM L-glutamine, 0.1 mg/mL gentamicin, and 100 U/mL penicillin. Cells were passaged every 3 days.
1.5 mg of each of the compounds were weighed, dissolved in the proper solvent to reach a 3 mM concentration, kept at 4° C., and used within 15 days. The dilutions for the treatment were carried out in order to administer a 1:1000 volume. Specifically, 2 μL in 2 mL medium was administered. Ctr was made with DMSO.
Cells were washed twice in phosphate buffer saline (PBS), harvested with 1% v/v trypsin, and pelleted by centrifugation. Pellets were re-suspended in PBS containing 0.1 M sucrose, 0.05 M KCl, 0.04 M KH2PO4, 30 mM EDTA, pH 7.4, and sonicated. The protein concentration was determined by the Lowry method.
Samples were solubilized in 0.25 mM Tris-HCl, (pH 6.8) containing 20% (w/v) SDS, protease inhibitor cocktail (Merck #PIC0002), then boiled for 2 minutes. […]

I1061T fibroblasts = assay: LysoTracker cytofluorimetric analysis of lysosomal size; format: cell-based; details: after 48 hours, particularly at 0.3 μM (FIG. 3)
Experimental: as §1
Healthy and I1061T fibroblasts were cultured as in Example 1. To evaluate the effect of Compound No. 10 on lysosomal size, cells were treated with either 300 μM beta-cyclodextrin (CD), 2.5 μM Rim, 0.3 μM Compound No. 10 (CB), 1 μM Compound No. 10, 3 μM Compound No. 10, or vehicle control (ctr) for 72 hours. Following treatment, cytofluorimetric assays using Lysotracker™ (Life Technology #L7528) fluorescence as a tool was used and performed according to the manufacturer's instructions. LysoTracker™ provides fluorescence detection for live-cell staining of acidic environments and can be used for labeling and tracing acidic organelles such as lysosomes. Stained and unstained cells were analyzed by Cytofluorimeter CytoFLEX (Beckman Coulter). Data provided are the ratio of geometric (geo) mean of LysoTracker™ levels in stained divided by unstained samples, collected at 24 hours (FIG. 3, left), 48 hours (FIG. 3, middle), and 72 hours (FIG. 3, right).

[2] = tested on: mouse model of Niemann-Pick Disease, Type C; details: WO 2014/022841; cited from earlier work

sigma 2/transmembrane protein 97 ("TMEM97") receptors, sequence (Q5BJF2 whole entry, species assumed): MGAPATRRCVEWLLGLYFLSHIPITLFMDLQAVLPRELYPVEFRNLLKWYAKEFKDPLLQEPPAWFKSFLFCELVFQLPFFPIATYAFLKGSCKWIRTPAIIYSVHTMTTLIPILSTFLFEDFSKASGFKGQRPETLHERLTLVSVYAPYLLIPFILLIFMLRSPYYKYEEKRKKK

C[C@@H]1CN(CCCn2c3ccccc3c3ccccc32)C[C@H](C)N1 [Rimcazole, 9-[3-(3,5-cis-dimethylpiperazino)propyl]-carbazole]
IC50 [1]: 0.386 µM

CC1(C)CCN(C2CCCC2)Cc2cc(-c3ccc(C(F)(F)F)cc3)ccc21 [Compound No. 10, 2-cyclopentyl-5,5-dimethyl-8-(4-(trifluoromethyl)phenyl)-2,3,4,5-tetrahydro-1H-benzo[c]azepine]
effect on NPC1 protein expression (NPC1 protein): did not have a statistically significant effect | fluorescence of the lysosomes (Lysotracker geo mean ratio), representing lysosomal size (I1061T fibroblasts): increase

OC[C@H]1O[C@@H]2O[C@H]3[C@H](O)[C@@H](O)[C@@H](O[C@H]4[C@H](O)[C@@H](O)[C@@H](O[C@H]5[C@H](O)[C@@H](O)[C@@H](O[C@H]6[C@H](O)[C@@H](O)[C@@H](O[C@H]7[C@H](O)[C@@H](O)[C@@H](O[C@H]8[C@H](O)[C@@H](O)[C@@H](O[C@H]1[C@H](O)[C@H]2O)O[C@@H]8CO)O[C@@H]7CO)O[C@@H]6CO)O[C@@H]5CO)O[C@@H]4CO)O[C@@H]3CO [beta-cyclodextrin]
cholesterol accumulation [2]: reduced | neuronal cell loss [2]: reduced
